Reference: US11912693B2, “Compounds for modulating S1P1 activity and methods of using the same” (TREVENA, INC., priority 2017, dated 2024)

Tests used:
[1] = test system: oxaliplatin induced peripheral neuropathy; assay: Reversal of allodynia induced by oxaliplatin in mice (von Frey frequency method); assay type: in vivo, c57bl/6 mice; conditions: tested 30 min after dosing
Procedure: Compounds were tested for efficacy in mouse models of chemotherapy induced peripheral neuropathy. […] For these studies […]/6 mice are habituated to the test environment and baseline measurements of pain sensitivity are assessed. To determine mechanical responses, the threshold for responses to punctate mechanical stimuli (mechanical hyperalgesia) was tested according to the frequency method. In brief, the plantar surface of the animal hindpaw was stimulated with a single von Frey monofilament (0.4 g) for approximately 1-2 seconds. If there was a withdrawal response, it was recorded as a positive response. A response was defined as a lifting or shaking of the paw upon stimulation. This was repeated ten times for each mouse. The final measurement for each mouse is the % non-response to stimulation for the ten trials. The % non-response to stimulation is converted to a % MPE. For paclitaxel induced peripheral neuropathy, a series of injections of PAC (6 mg/kg, i.p.) on days 1, 3, 5 and 7 is used to induce peripheral neuropathy. After approximately 14 days from the initiation of PAC injections, animals are re-assessed for mechanical sensitivity. […] On test day animals are dosed with compounds either subcutaneously or orally and tested for mechanical response by the frequency method either 30 min (s.c.) or 60 min (p.o.) after drug administration. Data is presented as a % MPE. For oxaliplatin induced peripheral neuropathy, a series of injections of OXA (4 mg/kg, i.p.) on days 1-5 is used to induce peripheral neuropathy. After approximately 14 days from the initiation of PAC injections, animals are re-assessed for mechanical sensitivity. […] On test day animals are dosed with compounds subcutaneously and tested for mechanical response by the frequency method 30 min after drug administration. Data is presented as a % MPE. One or more of the compounds show reversal of chemotherapeutic induced peripheral neuropathy.

[2] = test system: paclitaxel induced peripheral neuropathy; assay: Reversal of allodynia induced by paclitaxel in mice (s.c. or p.o., von Frey frequency method); assay type: in vivo, c57bl/6 mice; conditions: Mus musculus; for inhibition in vivo at 1 mg/kg: sc, 0.5 h, 1 mg/kg s.c., tested 30 min after dosing, read-out: Screen @ 1 mg/kg sc (% MPE)
Summary of the method: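 Neuropathy was induced in mice by paclitaxel (6 mg/kg i.p., days 1, 3, 5, 7) or oxaliplatin (4 mg/kg i.p., days 1-5), with re-testing about 14 days later. Compounds were given s.c. (tested at 30 min) or p.o. (tested at 60 min; paclitaxel only). A 0.4 g von Frey filament was applied ten times per paw, and % non-response was converted to % MPE.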

[3] = test system: peripheral blood lymphocytes; assay: Peripheral blood lymphocytes (lymphopenia) in c57bl/6 mice, acute and chronic studies; assay type: in vivo; conditions: peripheral blood lymphocytes vs vehicle; 6 mg/kg sc, 7 days
Procedure: Compounds were tested for changes in peripheral blood lymphocytes in c57bl/6 mice. In acute studies, animals (n=5/group) were dosed subcutaneously with test compound at a dose of 3 mg/kg. Animals were sacrificed at specific time points and 500 μl of whole blood was collected in EDTA (K2) Eppendorf tubes. Blood was stored on ice and shipped immediately overnight delivery to Charles River Laboratories for analysis. CRL ran samples through their WBC/differential panel on an Advia 120 instrument. We received peripheral lymphocyte counts (10^3 cells/μl) for each blood sample. Treatment group means were compared to a vehicle treatment group for statistical significance. In chronic studies, animals (n=6-8/group) were dosed subcutaneously with test compound either in a dose response paradigm (highest dose of 3 mg/kg) or in a screening paradigm at 6 mg/kg for seven days. On the seventh day, animals were sacrificed 45 minutes after the final dose. Whole blood was collected and analyzed as described for acute studies. […]

[4] = target: T1, human sphingosine-1-phosphate receptor 1 (S1P1) (Homo sapiens (Human), UniProt P21453); assay: Inhibition of cAMP production (HTRF cAMP HiRange), S1P1 CHO-K1 cells; assay type: cell-based; conditions: for hS1P1 cAMP pEC50: inhibition of cAMP production, S1P1 CHO-K1 cells
Summary of the method: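 CHO-K1 cells stably co-expressing human S1P1 (C-terminal Prolink tag) and EA-β-arrestin2 were grown in AssayComplete Media 6 at 37° C. and 5% CO2, plated, and incubated overnight. Agonist-driven inhibition of intracellular cAMP was read by TR-FRET with the HTRF cAMP HiRange kit on a PheraStar reader. Potency is pEC50, and efficacy (SPAN) is normalized to fingolimod.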
Target sequence in this assay (P21453 whole entry, looked up): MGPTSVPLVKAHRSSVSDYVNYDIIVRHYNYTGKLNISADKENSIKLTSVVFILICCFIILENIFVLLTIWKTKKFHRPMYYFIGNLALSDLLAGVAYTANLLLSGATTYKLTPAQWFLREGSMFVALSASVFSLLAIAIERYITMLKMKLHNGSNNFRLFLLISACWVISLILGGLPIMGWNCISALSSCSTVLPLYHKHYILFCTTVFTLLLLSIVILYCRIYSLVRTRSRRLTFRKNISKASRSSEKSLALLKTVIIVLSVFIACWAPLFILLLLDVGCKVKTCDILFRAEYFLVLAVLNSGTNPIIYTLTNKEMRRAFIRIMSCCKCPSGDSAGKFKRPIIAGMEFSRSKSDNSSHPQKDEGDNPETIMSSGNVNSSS

[5] = target: T1, human sphingosine-1-phosphate receptor 1 (S1P1); assay: β-Arrestin2 recruitment assay (PathHunter), S1P1 CHO-K1 cells; assay type: cell-based; conditions: for hS1P1 B-arrestin2 pEC50: β-arrestin2 recruitment, S1P1 CHO-K1 cells
Summary of the method: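 Enzyme-fragment complementation read-out: agonist-driven β-arrestin2 binding to ProLink-tagged human S1P1 in stable CHO-K1 cells restores β-galactosidase, measured 1 h at room temperature after a 60 min 37° C. compound incubation. Potency as pEC50, efficacy relative to fingolimod (SPAN).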
Target sequence in this assay (P21453 whole entry, looked up): as above
Target sequence in this assay (P32121 whole entry partner, looked up): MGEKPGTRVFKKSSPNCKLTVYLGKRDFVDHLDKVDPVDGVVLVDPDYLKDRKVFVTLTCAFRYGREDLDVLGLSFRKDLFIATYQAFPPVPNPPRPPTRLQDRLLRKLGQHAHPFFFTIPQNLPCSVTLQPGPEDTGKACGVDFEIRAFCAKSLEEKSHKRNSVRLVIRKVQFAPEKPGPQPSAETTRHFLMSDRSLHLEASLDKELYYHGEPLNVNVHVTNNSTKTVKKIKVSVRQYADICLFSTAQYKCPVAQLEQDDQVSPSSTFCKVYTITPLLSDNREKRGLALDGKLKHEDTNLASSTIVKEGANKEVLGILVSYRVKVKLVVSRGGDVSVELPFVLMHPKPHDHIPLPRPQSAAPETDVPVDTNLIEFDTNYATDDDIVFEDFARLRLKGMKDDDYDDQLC

[6] = test system: Freund's Complete Adjuvant induced inflammation / mechanical allodynia; assay: Tactile allodynia produced by intraplantar Freund's Complete Adjuvant in rats (Randall-Selitto); assay type: in vivo, rat; conditions: CFA model, 24 hours after CFA
Procedure: Animals were acclimated to the vivarium for at least 48 hr prior to behavioral testing. Inflammation was induced with the administration of an intraplantar (subcutaneous injection into the plantar surface of the hind paw, i.pl.) injection of 0.10 ml Freund's Complete Adjuvant (FCA). The experiments were conducted 24 hours after CFA administration. Rats are tested for mechanical allodynia in a Randall-Selitto apparatus. The inflamed paw is put on a pedestal and a pointed force of increasing intensity (0 to 250 grams) is applied to the paw. When the animal struggles to withdraw from the force the test is stopped and the force to induce that struggle is recorded. Data is presented as mean grams of force to withdrawal or a percentage of the maximum possible effect.

| SMILES | Screen @ 3 mg/kg sc (% MPE) [1] [% MPE] | inhibition in vivo at 1 mg/kg [2] [%] | Lymphopenia: Effect and Doses, mg/kg, sc [3] | hS1P1 cAMP pEC50 [4] | hS1P1 B-arrestin2 pEC50 [5] | inhibition in vivo at 3 mg/kg ([2]; po, 1 h, 3 mg/kg p.o., tested 60 min after dosing, read-out: Screen @ 3 mg/kg po (% MPE)) [%] | Active Doses, mg/kg sc (>50% MPE) [6] [mg/kg] | Emax ([4]; CHO-K1, efficacy (SPAN) normalized to fingolimod, read-out: hS1P1 cAMP SPAN) [%] | Emax ([5]; CHO-K1, efficacy (SPAN) normalized to fingolimod, read-out: hS1P1 B-arrestin2 SPAN) [%] |
| --- | --- | --- | --- | --- | --- | --- | --- | --- | --- |
| COc1ccc(-c2noc(-c3ccc4c(c3)nnn4C(C)C)n2)c(C)c1 [Compound 55, 5-(1-isopropyl-1H-benzo[d][1,2,3]triazol-5-yl)-3-(4-methoxy-2-methylphenyl)-1,2,4-oxadiazole] | >50 | < 50 | no change: 6 mg/kg, 7 days | >6.5 | >5 | – | – | – | – |
| Cc1cnccc1-c1nc(-c2ccc3c(ccn3C(C)C)c2)no1 [Compound 142, 3-(1-isopropyl-1H-indol-5-yl)-5-(3-methylpyridin-4-yl)-1,2,4-oxadiazole] | >50 | > 50 | no change: 6 mg/kg, 7 days | >6.5 | >5 | > 50 | ≥0.1 | > 75 | > 75 |
| Cc1ccsc1-c1noc(-c2ccc3c(c2)nnn3C(C)C)n1 [Compound 169, 5-[3-(3-methylthiophen-2-yl)-1,2,4-oxadiazol-5-yl]-1-(propan-2-yl)-1H-1,2,3-benzotriazole] | >50 | > 50 | no change: 6 mg/kg, 7 days | >6.5 | >5 | – | – | – | – |
